# Earlier results in patent US20240249808A1, “Physiologically Based Toxicokinetic (PBTK) Modeling for Implant Toxicology” (Cyprus University of Technology, priority 2021, published 2024).
# Conditions: parenteral (non-oral) exposure; prolonged or permanent patient exposure; adverse systemic effects except hypersensitivity; CDRH recommended
smiles,measurement,value
[Ni] [nickel],Tolerable Intake (TI) value,0.5 µg/kg/day
